The source of these data is ChEMBL document CHEMBL3046582, “Antifeedant activity of sesquiterpenes from celastraceae” (1997).

Assay [1] relates to Spodoptera littoralis. The experiment in a line: Antifeedant activity against newly ecdysed fifth-instar larval stage of Spodoptera littoralis in compound-pretreated lettuce leaf disks assessed as consumed area of leaf disks at 10 ug/cm'2 measured at 30 min intervals for 4-5 hr post-drug exposure by choice test. In kind it is functional.
Assay [2] relates to Spodoptera littoralis. Nature of the assay: Antifeedant activity against newly ecdysed fifth-instar larval stage of Spodoptera littoralis in compound-pretreated lettuce leaf disks assessed as consumed area of leaf disks at 1 ug/cm'2 measured at 30 min intervals for 4-5 hr post-drug exposure by choice test. In kind it is functional.

Turning to `CC(=O)O[C@@H]1[C@@H](O)[C@@H]2[C@@H](OC(=O)c3cccnc3)[C@@]3(OC2(C)C)[C@@]1(C)[C@@H](OC(=O)c1ccccc1)CC[C@]3(C)O`, the FR50 in the assay on Spodoptera littoralis [1] is 0.74.

Take `CC(=O)O[C@@H]1[C@H]2[C@@H](OC(=O)c3ccccc3)[C@@H](OC(=O)c3ccccc3)[C@]3(OC(C)=O)[C@@H](OC(=O)c4ccccc4)CC[C@](C)(O)[C@@]13OC2(C)C`: the FR50 in the assay on Spodoptera littoralis [1] was found to be 0.76. Take `C/C=C(/C)C(=O)O[C@@H]1[C@@H]2[C@@H](OC(C)=O)[C@@]3(OC2(C)C)[C@@](OC(C)=O)([C@@H](OC(C)=O)CC[C@]3(C)O)[C@@H]1OC(=O)c1ccccc1`: the values for the FR50 with Spodoptera littoralis [2] and in the assay on Spodoptera littoralis [1] were 0.2 and 0.06, respectively. As to `CC(=O)O[C@H]1[C@@H]2[C@@H](O)[C@@]3(OC2(C)C)[C@](C)([C@H]1OC(=O)c1ccccc1)[C@@H](OC(=O)c1ccccc1)[C@H](OC(C)=O)[C@H](OC(C)=O)[C@]3(C)O`, the FR50 in the assay on Spodoptera littoralis [1] is on record as 0.38. On to `CC1(C)O[C@]23C[C@@H]1CC[C@]2(C)CC[C@H](O)[C@@]3(C)O`, for which the FR50 in the assay on Spodoptera littoralis [1] was found to be 0.52. Same read-out and setting: the result for `CC(=O)O[C@@H]1[C@H]2C[C@H](OC(=O)c3ccccc3)[C@]3(C)[C@@H](OC(=O)c4ccccc4)[C@H](O)[C@H](C(C)=O)[C@](C)(O)[C@@]13OC2(C)C` reads 0.56; that for TRIPHENYLSTANNYL ACETATE, 0.37. For the compound `CC(=O)O[C@H]1C[C@](C)(O)[C@]23OC(C)(C)[C@H]([C@@H](C(C)=O)[C@@H](OC(=O)c4ccccc4)[C@]2(OC(C)=O)[C@H]1OC(=O)c1ccccc1)[C@H]3OC(C)=O`, the FR50 in the assay on Spodoptera littoralis [1] was found to be 0.35.

With `CC(=O)O[C@@H]1[C@@H]2[C@@H](OC(C)=O)[C@@]3(OC2(C)C)[C@@](OC(C)=O)([C@@H](OC(=O)c2ccccc2)CC[C@]3(C)O)[C@@H]1OC(=O)c1ccccc1`, the figures for the FR50 with Spodoptera littoralis [2] and in the assay with Spodoptera littoralis [1] were 0.58 and 0.24, respectively. For `CC(=O)O[C@@H]1[C@H]2C[C@H](OC(=O)c3ccccc3)[C@]3(OC(C)=O)[C@@H](OC(C)=O)[C@@H](C(C)=O)CC(C)[C@@]13OC2(C)C` (stereo partly specified), the FR50 in the assay with Spodoptera littoralis [1] was 0.36. In the case of `CC(=O)O[C@H]1[C@H](OC(=O)c2ccccc2)[C@@]2(C)[C@@H](OC(=O)c3ccccc3)C[C@@H]3[C@@H](O)[C@]2(OC3(C)C)[C@@](C)(O)[C@H]1O`, the FR50 in the assay on Spodoptera littoralis [1] is on record as 0.6.

On to `CC(=O)O[C@@H]1[C@H]2C[C@H](OC(=O)c3ccccc3)[C@]3(C)[C@@H](OC(=O)c4ccccc4)[C@H](C(C)=O)C[C@](C)(O)[C@@]13OC2(C)C`, for which the FR50 with Spodoptera littoralis [1] is listed as 0.35. Same read-out and setting: next, `CC(=O)O[C@@H]1[C@H]2C[C@H](OC(=O)c3ccccc3)[C@]3(C)[C@@H](OC(=O)c4ccccc4)[C@H](C(C)=O)[C@H](C(C)=O)[C@](C)(O)[C@@]13OC2(C)C`: 0.65; `CC(=O)O[C@@H]1[C@H]2C(=O)[C@@H](OC(=O)c3ccccc3)[C@]3(O)[C@@H](OC(C)=O)[C@@H](C(C)=O)CC(C)[C@@]13OC2(C)C` (stereo partly specified): 0.41. On the same count and under the same terms, the result for `CC(=O)O[C@H]1C[C@@H]2[C@@H](OC(=O)c3cccnc3)[C@@]3(OC2(C)C)[C@@]1(C)[C@@H](OC(=O)c1ccccc1)CC[C@]3(C)O` reads 0.68; that for `CC(=O)O[C@H]1[C@H](OC(=O)c2ccccc2)[C@@]2(C)[C@@H](OC(=O)c3ccccc3)C[C@H]3C[C@]2(OC3(C)C)[C@@](C)(O)[C@H]1O`, 0.61; that for `CC(=O)O[C@H]1[C@H](OC(=O)c2ccccc2)[C@@]2(C)[C@@H](O/C=C/c3ccccc3)C[C@@H]3[C@@H](OC(C)=O)[C@]2(OC3(C)C)[C@@](C)(O)[C@H]1O`, 0.76.

Regarding `COCCCC[C@@H]1[C@@H]2[C@@H](OC(C)=O)[C@@]3(OC2(C)C)[C@@](OC(C)=O)([C@@H](OC(=O)c2ccccc2)CC[C@]3(C)O)[C@@H]1OC(=O)c1ccccc1`, the FR50 in the assay on Spodoptera littoralis [1] was 0.45. Still for that read-out and setting: the result for `CC(=O)O[C@@H]1[C@H]2C[C@H](OC(=O)c3ccccc3)[C@]3(C)[C@@H](OC(=O)c4ccccc4)[C@H](C(C)=O)[C@H](O)C(C)[C@@]13OC2(C)C` (stereo partly specified) reads 0.63.
